For one data set, the system named is CML cell line K562. Description: MTT cell viability assay, K562. The note with it: for IC50: read-out: IC50 Values, K562 Cell Line; for SI (selectivity index): ratio of the IC50 between PBMC and K562 cells. Type of data set: cell-based, human. As for the experimental part:
A549 human lung carcinoma and HeLa human cervical carcinoma cell lines were cultured in Dulbecco’s Modified Eagle Medium (DMEM). […] In experiments, all cancer cell lines and PBMC were cultured in 24-well and 96-well plates (Iwaki brand Asahi Glass, Chiba, Japan) at 2 × 10^4 cells/mL and 1 × 10^6 cells/mL concentrations, respectively for 24 h.
The cells were then stained with MTT solution and incubated for additional 4 h. At the end of this period, supernatants were removed and 100 μL DMSO was added to each well to solubilize the formazan crystals. The absorbance of the solution was determined on the Infinitive M1000 (Tecan, Mannedorf, Switzerland) plate reader at a wavelength of 550 nm with background subtraction at 630 nm.

The subject of data set [1] is peripheral blood mononuclear cells (PBMC). In words: MTT cell viability assay, PBMC. Type of data set: cell-based. The note with it: 24 h exposure. How it is done:
A549 human lung carcinoma and HeLa human cervical carcinoma cell lines were cultured in Dulbecco’s Modified Eagle Medium (DMEM). MCF7 human breast cancer and leukemic (K562, HL-60, MT-2 and Jurkat) cells, and PBMC (Precision Bioservices, Frederic, MD, USA) were cultured in RPMI 1640. All media were purchased from FUJIFILM Wako (Osaka, Japan) and supplemented with 10% fetal bovine serum (FBS) (Sigma-Aldrich, St. Louis, MO, USA) and 89 μg/mL streptomycin (Meiji Seika Pharma, Tokyo, Japan) at 37 °C in a humid atmosphere and 5% CO2. In experiments, all cancer cell lines and PBMC were cultured in 24-well and 96-well plates (Iwaki brand Asahi Glass, Chiba, Japan) at 2 × 10^4 cells/mL and 1 × 10^6 cells/mL concentrations, respectively for 24 h.
The cells were exposed to various concentrations (1–100 μM) of the compounds for 24 h at 37 °C. The cells were then stained with MTT solution and incubated for additional 4 h. At the end of this period, supernatants were removed and 100 μL DMSO was added to each well to solubilize the formazan crystals. The absorbance of the solution was determined on the Infinitive M1000 (Tecan, Mannedorf, Switzerland) plate reader at a wavelength of 550 nm with background subtraction at 630 nm.

The test system of the next data set is K562 cells. Description: Cell death detection (Hoechst 33342/annexin V/ethidium homodimer III staining). It counts as cell-based, human. To be noted: K562, IC50 concentration, 8 h. As for the experimental part: The cells were then briefly washed twice with 1 × binding buffer. A staining solution containing 50 μL of 1 × binding buffer and 5 μL of FITC-Annexin V solution, 5 μL of ethidium homodimer III solution, or 5 μL of Hoechst 33342 solution was added, and incubated for 15 min at room temperature in the dark. Then, the cells were washed with 1 × binding buffer, and analyzed by the all-in-one fluorescence microscope Biorevo Fluorescence BZ-9000 (Keyence, Osaka, Japan). The number of healthy cells (Hoechst 33342), apoptotic cells (Annexin V), late apoptotic or necrotic cells (Annexin V and Ethidium homodimer III) and necrotic cells (Ethidium homodimer III) were counted as previously described.

[2] abbreviates: Homo sapiens, K562, 24 h, MTT, 24 h exposure.

Where two headings read alike, the source gives them in different places.

We go through 16 compounds from paper PMC6804044, “Design, Synthesis and Biological Evaluation of Pentacyclic Triterpene Derivatives: Optimization of Anti-ABL Kinase Activity” (Molecules, 2019).

As to gypsogenin [GP, reference compound], the IC50 with CML cell line K562 (MTT, 24 h exposure) was 12.7 ± 2.15 µM; in data set [1], more than 100 µM.

`Cc1ccc(NC(=O)c2ccc(CN3CCN(C)CC3)cc2)cc1Nc1nccc(-c2cccnc2)n1` [Imatinib, reference compound]: in the data set with K562 cells, the “apoptotic effects on CML cell line” value was found to be 18% and the late apoptotic/necrotic effects was determined as 5.6%.

Take `C[C@H]1[C@H](C)CC[C@]2(C(=O)O)CC[C@]3(C)C(=CC[C@@H]4[C@@]5(C)C[C@@H](O)[C@H](O)[C@@](C)(CO)[C@@H]5CC[C@]43C)[C@H]12` [AA, asiatic acid, reference compound]: the values for the IC50 (in the data set on CML cell line K562 (setting [2]); in data set [1] (PBMC)) were 29.3 ± 3.42 µM and more than 100 µM, respectively. In addition, in the data set on CML cell line K562, the “SI (selectivity index)” value is given as more than 3.41.

As for `CC1(C)CC[C@]2(C(=O)OCc3ccccc3)CC[C@]3(C)C(=CC[C@@H]4[C@@]5(C)CC[C@H](O)[C@@](C)(CO)[C@@H]5CC[C@]43C)[C@@H]2C1` [PT4, Hederagenin benzyl ester], the half-inhibitory concentration (IC50) in the data set with CML cell line K562 (setting [2]) came to 6.48 ± 1.27 µM; in data set [1] (PBMC), 23.1 ± 3.11 µM. The “cytotoxicity on K562 relative to parent triterpene HE” value in the data set with CML cell line K562 (fold vs HE) is “more than 15 times”. Further, the “SI (selectivity index)” value with CML cell line K562 turned out to be 3.56.

Turning to `C[C@H]1[C@H](C)CC[C@]2(C(=O)O)CC[C@]3(C)C(=CC[C@@H]4[C@@]5(C)CC[C@H](O)C(C)(C)[C@@H]5CC[C@]43C)[C@H]12` [UA, ursolic acid, reference compound], the IC50 in the data set with CML cell line K562 (setting [2]) was 16.5 ± 1.13 µM; in data set [1] (PBMC), more than 100 µM. For the same compound, the “SI (selectivity index)” value with CML cell line K562 was more than 6.06.

`C[C@H]1[C@H](C)CC[C@]2(C(=O)OCc3ccccc3)CC[C@]3(C)C(=CC[C@@H]4[C@@]5(C)C[C@@H](O)[C@H](O)[C@@](C)(CO)[C@@H]5CC[C@]43C)[C@H]12` [PT1, Asiatic acid benzyl ester]: the IC50 in the data set on CML cell line K562 (setting [2]) amounted to 4.1 ± 0.85 µM; in data set [1] (PBMC), 15.5 ± 1.08 µM. Also, the “SI (selectivity index)” value in the data set with CML cell line K562 is given as 3.79.

Consider `CC1(C)[C@@H](O)CC[C@]2(C)[C@H]3C(=O)C=C4[C@@H]5C[C@@](C)(C(=O)O)CC[C@]5(C)CC[C@@]4(C)[C@]3(C)CC[C@@H]12` [GA, glycyrrhetinic acid, reference compound], for which the results for the IC50 (in the data set with CML cell line K562 (setting [2]); in data set [1] (PBMC)) were 41 ± 5.34 µM and more than 100 µM, respectively. Besides, the “SI (selectivity index)” value in the data set on CML cell line K562 is on record as more than 2.43.

With `COc1ccc(COC(=O)[C@]23CCC(C)(C)C[C@H]2C2=CC[C@@H]4[C@@]5(C)CC[C@H](O)[C@@](C)(C=O)[C@@H]5CC[C@@]4(C)[C@]2(C)CC3)cc1` [GP1, Gypsogenin 4-methoxybenzyl ester], the melting point lay in the range of 78 to 80 °C. Also, in the data set on CML cell line K562 (setting [2]), the IC50 worked out at 5.53 ± 1.78 µM. Moreover, the “SI (selectivity index)” value in the data set on CML cell line K562 is reported as 4.53. In addition, in data set [1] (PBMC), inhibition was half-maximal at 25.1 ± 2.92 µM (IC50).

In the case of `CC1(C)CC[C@]2(C(=O)OCc3ccc(C(F)(F)F)cc3)CC[C@]3(C)C(=CC[C@@H]4[C@@]5(C)CC[C@H](O)[C@@](C)(C=O)[C@@H]5CC[C@]43C)[C@@H]2C1` [GP3, Gypsogenin 4-trifluoromethyl benzyl ester], the melting point was 175 to 177 °C. In the data set with CML cell line K562 (setting [2]), the IC50 was determined as 4.58 ± 1.49 µM. In the data set with CML cell line K562, the “SI (selectivity index)” value worked out at 5.07. Also, the IC50 in data set [1] (PBMC) stood at 23.2 ± 3.08 µM.

For `C=C(C)[C@@H]1CC[C@]2(C(=O)OCc3ccccc3)CC[C@]3(C)[C@H](CC[C@@H]4[C@@]5(C)CC[C@H](O)C(C)(C)[C@@H]5CC[C@]43C)[C@@H]12` [PT2, Betulinic acid benzyl ester], the results for the half-maximal inhibitory concentration (IC50) (in the data set on CML cell line K562 (setting [2]); in data set [1] (PBMC)) were 8.49 ± 1.22 µM and 28 ± 2.74 µM, respectively. The “SI (selectivity index)” value with CML cell line K562 is 3.29.

As to `CC1(C)[C@@H](O)CC[C@]2(C)[C@H]3C(=O)C=C4[C@@H]5C[C@@](C)(C(=O)OCc6ccccc6)CC[C@]5(C)CC[C@@]4(C)[C@]3(C)CC[C@@H]12` [PT3, Glycyrrhetic acid benzyl ester], the 50% inhibitory concentration (IC50) in the data set with CML cell line K562 (Homo sapiens, K562, 24 h) was 69.5 ± 8.43 µM; in data set [1] (PBMC), more than 100 µM. In addition, in the data set on CML cell line K562, the “SI (selectivity index)” value is recorded as more than 1.44.

As to `CC1(C)CC[C@]2(C(=O)O)CC[C@]3(C)C(=CC[C@@H]4[C@@]5(C)CC[C@H](O)C(C)(C)[C@@H]5CC[C@]43C)[C@@H]2C1` [OA, oleanolic acid, reference compound], the IC50 was approximately 13 µM in the data set with CML cell line K562 (setting [2]); 13.5 ± 2.55 µM in the data set on CML cell line K562 (MTT, 24 h exposure); more than 100 µM in data set [1] (PBMC).

As for `CC1(C)CC[C@]2(C(=O)O)CC[C@]3(C)C(=CC[C@@H]4[C@@]5(C)CC[C@H](O)[C@@](C)(CO)[C@@H]5CC[C@]43C)[C@@H]2C1` [HE, hederagenin, reference compound], the 50% inhibitory concentration (IC50) (in the data set on CML cell line K562 (setting [2]); in data set [1] (PBMC)) was more than 100 µM each time. The “SI (selectivity index)” value with CML cell line K562 is on record as more than 1.

The compound `CC1(C)CC[C@]2(C(=O)OCc3cc(F)cc(F)c3)CC[C@]3(C)C(=CC[C@@H]4[C@@]5(C)CC[C@H](O)[C@@](C)(C=O)[C@@H]5CC[C@]43C)[C@@H]2C1` [GP4, Gypsogenin 3,5-difluorobenzyl ester] registered a melting point of 58 to 60 °C. Further, in the data set on CML cell line K562 (setting [2]), the IC50 came out at 5.13 ± 1.38 µM. In the data set on CML cell line K562, the “SI (selectivity index)” value worked out at 5.51. Further, in data set [1] (PBMC), it took 28.3 ± 2.25 µM to reach half-maximal inhibition (IC50).

With `C=C(C)[C@@H]1CC[C@]2(C(=O)O)CC[C@]3(C)[C@H](CC[C@@H]4[C@@]5(C)CC[C@H](O)C(C)(C)[C@@H]5CC[C@]43C)[C@@H]12` [BA, betulinic acid, reference compound], the concentration for half-maximal inhibition (IC50) was 52.3 ± 4.79 µM in the data set with CML cell line K562 (setting [2]) and more than 100 µM in data set [1] (PBMC). For the same compound, the “SI (selectivity index)” value in the data set with CML cell line K562 is recorded as more than 1.91.

On to `C[C@H]1[C@H](C)CC[C@]2(C(=O)OCc3ccccc3)CC[C@]3(C)C(=CC[C@@H]4[C@@]5(C)CC[C@H](O)C(C)(C)[C@@H]5CC[C@]43C)[C@H]12` [PT6, Ursolic acid benzyl ester], for which the values for the IC50 (with CML cell line K562 (setting [2]); in data set [1] (PBMC)) were 21.8 ± 1.24 µM and 43.3 ± 1.93 µM, respectively. The “SI (selectivity index)” value with CML cell line K562 is on record as 1.99.
